Assay results taken from patent US6495577B2, “Pesticidal composition” (Aventis CropScience GmbH, priority 2000, dated 2002).

Tested on: Trialeurodes vaporariorum
Assay: Mortality of whitefly nymphs on sprayed French bean plants (greenhouse)
Assay type: in vivo
Details: 240 h, 10 days after application
Description: The invention is illustrated in the following Example which describe experiments in which a synergistic effect was observed. The desired concentration of the active ingredients was achieved by diluting, with water, the commercially available 25% by volume emulsifiable concentrate of deltamethrin and 20% by weight water soluble powder of acetamiprid, each of which contained conventional surfactants.
Two plants of two week old French beans (Phaseolus vulgaris) were infested with adult whitefly (Trialeurodes vaporariorum) for oviposition in a closed chamber. After 48 hours, the adults were blown off the plants so that only the eggs stayed at the surface of the leaves. The plants were placed in a greenhouse for 7 days to complete the development of the eggs to the larval stage L 1/2. The plants were then sprayed with the individual compounds and mixtures of the two, by hand with a spray gun, until complete coverage of the plant surfaces with the spray liquid was obtained. The plants were then placed in the greenhouse for a further 10 days. Two replicates of each test was carried. The mortality of the nymphs of Trialeurodes vaporadorum was estimated 10 days after application and the average of the two replicates calculated.
To indicate the existence of synergism between the active components, the results were treated in the manner described by Colby S. R., “Calculating Synergistic and Antagonistic Responses of Herbicide Combinations,” Weeds, 1967, 15, 20-22. In this method, the “expected” percent control, E, of the combination is given by the equation: [formula]
The LC50 in ppm of the mixtures was calculated and compared with the expected LC50 from the expected mortalities according to Colby.

Structure (SMILES)	mortality at 0.1 ppm (acetamiprid 0,1 ppm alone)	mortality at 0.03 ppm (acetamiprid 0,03 ppm alone)	mortality at 0.3 ppm (acetamiprid 0,3 ppm alone)	mortality at 1 ppm (acetamiprid 1 ppm alone)	mortality at 3 ppm (acetamiprid 3 ppm alone)	mortality at 0.01 ppm (deltamethrin 0,01 ppm alone)	mortality at 0.1 ppm (deltamethrin 0,1 ppm alone)	mortality at 0.02 ppm (deltamethrin 0,02 ppm alone)	mortality at 0.2 ppm (deltamethrin 0,2 ppm alone)	mortality at 0.06 ppm (deltamethrin 0,06 ppm alone)	mortality at 0.6 ppm (deltamethrin 0,6 ppm alone)	mortality at 0.33 ppm (deltamethrin 0,33 ppm alone)	mortality at 1 ppm (deltamethrin 1 ppm alone)	mortality at 0.006 ppm (deltamethrin 0,006 ppm alone)	mortality at 0.033 ppm (deltamethrin 0,033 ppm alone)
C/C(=N\C#N)N(C)Cc1ccc(Cl)nc1 [acetamiprid, E-N^1-[(6-chloro-3-pyridylmethyl)]-N^2-cyano-N^1-methylacetamidine]	1.25%	0%	7.5%	23.8%	56.2%										
CC1(C)[C@H](C(=O)O[C@H](C#N)c2cccc(Oc3ccccc3)c2)[C@@H]1C=C(Br)Br [deltamethrin, (S)-α-cyano-3-phenoxybenzyl (1R,3R)-3-(2,2-dibromvinyl)-2,2-dimethylcyclopropanecarboxylate]						0.75%	25%	2.5%	36.2%	15%	47.5%	47.5%	73.8%	0%	8.75%
